Here are results for six molecules from patent publication US20220330547A1, “INSECT REPELLENT” (Rilis Co., Ltd., priority 2019, published 2022).

The structures appear in SMILES notation. Where “and” joins values, the source holds several entries; their conditions need not be identical. Identical values can stand only once. Like-named read-outs stand apart in the source and are kept apart here.

Data set [1] in a line: oxidative modification of sample on filter paper, 40° C. for a week, measured by chromatography. The conditions noted are these: for Variation (Oxidation) (%): decrease of area after 1 week at 40° C.; for Day of experiment (area): filter paper 1 g/m^2, measured on the day; for After 1 week (area): filter paper 1 g/m^2, sealed flask, 40° C., 150 rpm, a week. It counts as physicochemical.

Data set [2] has as its system ticks. In words: tick repellency test (petri dish) with filter paper heated at 150° C. The conditions noted are these: 24 hours. It counts as in vivo. On the procedure:
Subsequently, a relationship between the tick repellent effect resulting from a difference in oxidative modification rate and time was examined. In the test, mixed farnesyl acetone isomers, trans-farnesyl acetone, 2,4-DHAP and xanthoxyline were each dissolved to 1 g/m^2 in acetone, and each filter paper added thereto was heated at 150° C. only for 3 minutes, 5 minutes or 26 minutes. The filter paper not heated (hereinafter referred to as 150° C., 0 min) was also prepared.
Each filter paper was placed on the center of a petri dish with a diameter of 4 cm, and 0.05 g of an attractant sample was placed on the center of filter paper. The petri dish was placed on the center of another petri dish with a diameter of 9 cm, and about 10000 ticks were provided together with a medium to this another petri dish, which was left to stand for 24 hours. After that, ticks in the 4 cm petri dish were counted.
For the repellency rate, the proportion of the number of ticks which had not been attracted was calculated by the following formula using the number of ticks entering the petri dish on which only the attractant sample was placed, x (control), and contrarily the number of ticks entering the petri dish on which mixed farnesyl acetone isomers, trans-farnesyl acetone, 2,4-DHAP or xanthoxyline was placed, n.
Repellency rate={(x−n)/x} x 100 (%)
* a small number of entering ticks =high repellency rate
It should be noted that the heating time at 150° C. is not described in detail herein, but was converted by the following Arrhenius equation described in “Sumie Yoshioka, Stability of drugs and dosage forms, p. 142, 1995, Nankodo Co., Ltd.” as in Drug testing on Stability studies.
Arrhenius equation: k =A exp (-E/RT)
* Activation energy of stability studies E=22.1 kcal/mol.

For data set [3] the following is noted: 25° C.; cited from earlier work.
Data set [4] relates to ticks. The conditions noted are these: 1 g/m^2, after 24 hours; for Mortality rate after correction (%): corrected by mortality rate without treatment. As for the experimental part:
Incidentally, a tick killing experiment was performed by a filter paper contact method to examine whether or not the insecticidal effect is contained in the repellent effect of 2,4-DHAP and xanthoxyline. In the experiment, ticks attracted to the untreated site in the repellent test by the petri-dish method were obtained on a filter paper by the sodium chloride floatation method, and living ticks were gently taken with a fine brush (one stroke). A 5 cm x 10 cm filter paper permeated with 1 g/m^2 of a sample was dried in air and shaped into a bag form. The taken ticks were put therein, and the opening thereof was closed with clips. After 24 hours, living ticks and dead ticks were measured.
In the tick killing test, 2,4-DHAP, xanthoxyline and DEET were compared. DEET is a compound used as a repellent for e.g. insects (anti-insect agent), and is also called N,N-diethyl-3-methylbenzamide or N,N-diethyl-m-toluamide.
In Table 3, the mortality rates (%) of 2,4-DHAP, xanthoxyline and DEET are values corrected by the mortality rate without treatment based on the mortality rate without treatment.

Data set [5] deals with ticks. In words: repellent effect of farnesyl acetone in an environment of 150° C. (background statement). It counts as in vivo. On the procedure:
For example, if there is a heat treatment step in the step of the anti-tick treatment, because oxidation reactivity due to heat is high, the repellent effect is already reduced to 30% or less after about 3 minutes in an environment of 150° C., and the repellent effect is reduced to 0% by at most 60 minutes. That is to say, it is troublesome to subject living materials of interest to the anti-tick treatment.

In data set [6] the test system is ticks. The conditions noted are these: maintained over 14 days; cited from earlier work.
[7] abbreviates: 1 g/m^2, 150° C. 0 min (not heated).
The mark [8] stands for this setting: 1 g/m^2, 150° C. 3 min (corresponding to 25° C., about 4 months).
Where [9] appears, read: 1 g/m^2, 150° C. 5 min (corresponding to 25° C., about 7 months).
[10] abbreviates: 1 g/m^2, 150° C. 26 min (corresponding to 25° C., about 3 years).

With `CC(=O)CCC=C(C)CCC=C(C)CCC=C(C)C` (mixture of isomers) [Mixed farnesyl acetone isomers, farnesyl acetone], the “Variation (Oxidation) (%)” value in data set [1] and in data set [1] (listed as mixed farnesyl acetone isomers) was 67.10% each time. In data set [1], the “Day of experiment (area)” value stood at 3145831 area. In data set [1], the “After 1 week (area)” value is on record as 1038335 area. In addition, the Repellency rate is 90.60% in the data set on ticks [2] (setting [7]); 94.90% in the data set on ticks [2] (setting [8]); 24.60% in the data set on ticks [2] (setting [9]); 30% in the data set with ticks [2] (1 g/m^2, 150° C. 5 min (corresponding to 25° C., about 7 months), listed as mixed farnesyl acetone isomers); 17.60% in the data set with ticks [2] (setting [10]); 17.6% with ticks [2] (1 g/m^2, 150° C. 26 min (corresponding to 25° C., about 3 years), listed as mixed farnesyl acetone isomers).

As to `CC(=O)c1ccc(O)cc1O` [2,4-DHAP, 2′,4′-dihydroxyacetophenone], the transpiration properties in data set [3] is reported as 6×10^-5 mmHg. Besides, in data set [1], the “Variation (Oxidation) (%)” value was 7.4% and 7.46%; the “Day of experiment (area)” value is given as 12027833 area; the “After 1 week (area)” value stood at 11130386 area. For the same molecule, the Repellency rate in the data set on ticks [2] (setting [7]) was determined as 39.80%. In the data set with ticks [2] (setting [8]), this molecule returned a Repellency rate of 37.40%. Besides, in the data set with ticks [4] (Average), the Dead ticks amounted to 4, the Living ticks turned out to be 106 and the “Mortality rate (%)” value is recorded as 3.4%. Also, in the data set on ticks [4] (single run), the Living ticks is 81 and 131; the “Mortality rate (%)” value was 2.4% and 4.4%; the “Mortality rate after correction (%)” value stood at 0.0%.

For `CCN(CC)C(=O)c1cccc(C)c1` [DEET, N,N-diethyl-3-methylbenzamide, reference compound], in the data set with ticks [4] (Average), the Dead ticks came out at 62, the Living ticks is 2, the “Mortality rate (%)” value was found to be 96.2% and the “Mortality rate after correction (%)” value is given as 95.8%. Moreover, in the data set on ticks [4] (single run), the “Mortality rate (%)” value is 100.0% and 92.3%; the “Mortality rate after correction (%)” value is 100.0% and 91.5%.

In the case of `COc1cc(O)c(C(C)=O)c(OC)c1` [Xanthoxyline], the transpiration properties in data set [3] was 1.5×10^-5 mmHg. In addition, the “Variation (Oxidation) (%)” value in data set [1] and in data set [1] (listed as xanthoxyline) was 2.42% throughout. The “Day of experiment (area)” value in data set [1] turned out to be 5756751 area. The “After 1 week (area)” value in data set [1] came out at 5617299 area. Besides, the Repellency rate with ticks [2] (setting [7]) is listed as 92.40%; in the data set with ticks [2] (setting [8]), 97.40%; in the data set with ticks [2] (1 g/m^2, 150° C. 3 min (corresponding to 25° C., about 4 months), listed as xanthoxyline) it was not below 90%; in the data set on ticks [2] (setting [9]), 95.80%; with ticks [2] (1 g/m^2, 150° C. 5 min (corresponding to 25° C., about 7 months), listed as xanthoxyline), not below 90%; in the data set on ticks [2] (setting [10]), 93.00%. Further, the Dead ticks in the data set with ticks [4] (Average) is 24; with ticks [4] (single run), 26 and 22. In addition, the Living ticks in the data set with ticks [4] (Average) was 75; in the data set with ticks [4] (single run), 90 and 59.

In the case of `CC(=O)CCC=C(C)CCC=C(C)CCC=C(C)C` [farnesyl acetone], the repellent effect in the data set with ticks [5] (after about 3 minutes at 150° C.) is reported as not above 30%; with ticks [5] (by at most 60 minutes at 150° C.), 0%; with ticks [6], not below 95%.

In the case of `CC(=O)CC/C=C(\C)CC/C=C(\C)CCC=C(C)C` [trans-Farnesyl acetone], the “Variation (Oxidation) (%)” value in data set [1] and in data set [1] (listed as trans-farnesyl acetone) was 19.29% throughout. Further, in data set [1], the “Day of experiment (area)” value is recorded as 4022168 area. Also, in data set [1], the “After 1 week (area)” value is 3246218 area. Also, the Repellency rate was 94.30% in the data set with ticks [2] (setting [7]); 90.50% with ticks [2] (setting [8]); 65.70% in the data set on ticks [2] (setting [9]); “below 65%” with ticks [2] (1 g/m^2, 150° C. 5 min (corresponding to 25° C., about 7 months), listed as trans-farnesyl acetone); 0.00% in the data set on ticks [2] (setting [10]).
